Source: US11839661B2, “Rapid formation of supramolecular hydrogels by short peptide and bioactive small molecules” (BRANDEIS UNIVERSITY, priority 2017, dated 2023)
Square brackets hold non-standard residues; d marks the D form. Ends that are not written are not given here. Peptide text beside a SMILES is read from it. * marks the point of attachment. Acetyl(thymin-1-yl) = Cc1cn(CC(=O)*)c(=O)[nH]c1=O; Acetyl(2-naphthyl) = O=C(Cc1ccc2ccccc2c1)*

How the values were obtained:
MES-SA/dx5 cells [1] = test: CLSM of inhibition of Dox efflux pump; type: cell-based; settings: MES-SA/dx5 cells without NP1 treatment, five hours after changing to medium without Dox
Method: Confocal Laser Scanning Microscopy (CLSM) Images of the Inhibition of Efflux Pump: To determine the potential drug efflux inhibitory effect by nucleopeptides, the drug efflux of free DOX was evaluated without or with incubation with nucleopeptide in efflux pumps overexpressing MES-SA/dx5 cells. After seeding 1.5×10^5 cells into 3.5 cm confocal dish and incubating at 37° C. for 24 h, the cells were incubated either with 10 μM free Dox or Dox with different concentration of nucleopeptide for 4 h. Then the medium was removed and the cells were washed three times with culture medium, and subsequently incubated with fresh complete medium for different time intervals (0, 2 or 5 h). At the end of incubation time, the cells were washed twice by live cell imaging buffer and stained nucleus by Hoechst 33342 for 10 minutes. After washed twice by live cell imaging, the cells were imaged immediately by Zeiss 880 microscope at the lens of 60×.

MES-SA/dx5 cells [2] = test: MTT assay; type: cell-based; settings: 48 hours
Method: Cell culture and MTT assay: Cell culture was carried out with MES-SA/dx5 cells purchased from Sigma-Aldrich Corporation. These cells were cultured in Macyo's 5A medium supplemented with 10% v/v fetal bovine serum, 100 U/mL penicillin and 100 μg/mL streptomycin. The condition for cell culture was 37° C. in a humidified atmosphere of 5% CO2. The MTT assay was carried out using MES-SA/dx5 cells seeded in a 96-well plate with a density of 1*10^4 cells per-well (total medium volume of 100 μL). 24 hours post seeding, after the removal of the medium, solutions with serial of concentrations (5 concentrations) of different nucleopeptides were added to each well. Cells without the treatment of the precursors were used as the control. At designated time (24/48/72 hours), 10 μL MTT solution (5 mg/mL) was added to each well and incubated at 37° C. for another 4 h, and then 100 μL of SDS-HCl solution was added to stop the reduction reaction and dissolve the purple formazan. The absorbance of each well at 595 nm was measured by a multimode microplate reader. The cytotoxicity assay was performed three times and the average value of the three measurements was taken. All the statistical analysis used mean±SEM. The range of SEM is from 0.04 to 2.21.

[3] = test system: HS-5 (Human Bone Marrow Stromal) cell lines; test: Biocompatibility with HS-5 cell lines; type: cell-based; settings: HS-5 cells, over 3 days, concentration range 20-500 μM
From the text: The biocompatibility of peptide 1 with HS-5 (Human Bone Marrow Stromal) cell lines was investigated over 3 days. […] It is expected, therefore, that peptide 1 is also compatible with other types of physiologically normal cells.

[4] = Hydrogelation / gelation time by vial inverse method; type: physicochemical
Method: Hydrogel Preparation: Compound 1 (5.0 mg) was dissolved in 1 mL of aqueous buffer (sodium hydroxide was used to adjust the final pH to 7.4), and the hydrogels were formed after the addition of different equivalents of small molecules (initial concentration is 100 mM), the final concentration of 1 is 0.4 wt % in all hydrogels. The gelation time of 1 with different bioactive small molecules was determined by vial inverse method.

[5] = Rheology (storage and loss moduli); type: physicochemical
Method: Rheology Experiments: The rheological tests were performed on TA ARES-G2 rheometer, parallel-plate geometry with an upper plate diameter of 25 mm and a gap of 0.4 mm. During the measurement, the stage temperature was maintained at 25° C. by Peltier heating/cooling system. The hydrogel was loaded into stage by spatula. For the rheology testing in Examples 1-7, a time sweep was performed at the frequency of 6.28 rad/s and the strain for 1.0%, and a frequency sweep was performed at the range of 0.1 to 200 rad/s and strain is 1.0%. For the rheology testing in Examples 8-12, a strain sweep (0.1% to 100%) was performed at the frequency of 6.28 rad/s, and a frequency sweep was performed at the range of 0.1 to 200 rad/s and strain is 1.0%.

[6] = Doxorubicin release from hydrogel; type: physicochemical; settings: hydrogel of 1 (0.4 wt %) formed with 1 equivalent pyridoxal, Dox 200 μg/mL, 37° C.
Method: To load the drug, a solution of Dox (1 mg/mL) was added during the gelling process. After the hydrogel formed by addition of pyridoxal or ATP (final concentration of 1 is 0.4 wt % and doxorubicin was 200 μg/mL). 0.25 mL of PBS (0.1 M phosphate-buffered saline (PBS, pH 7.4) or 0.1 M acetate buffer solution (pH 5.0)) was added onto the surface of the hydrogels, 0.2 mL of solution was taken out at the desired time point and 0.2 mL of PBS was added back. For the following time points, 0.2 mL of PBS was taken out and 0.2 mL of PBS was added back at each point. Using this process, the release of Dox was monitored by measuring the absorbance of Dox at wavelength of 480 nm, and its release profile calculated. The experiment was performed at 37° C. in triplicate. The results are shown in FIGS. 9A-B. As expected, the hydrogel releases the Dox according to the type of small bioactive molecules and pH.

MBP-ASC^PYD = MBP-ASC^PYD (Homo sapiens, UniProt Q9ULZ3); test: TEM of MBP-ASC^PYD oligomerization on co-incubation with P5P; type: biochemical; settings: P5P 100 μM co-incubated with MBP-ASC^PYD (1 mg/mL, ~18 μM)
[7] = Sequestration of ATP by nucleopeptide (phase transition); type: binding
Method: (§1) Sample Preparation and Process for Sequestering ATP by Nucleopeptide: Typically, nucleopeptide […] was dissolved in 1 mL of PBS buffer. A minimal amount of sodium hydroxide was used to adjust the final pH to 7.4 to form 5.0 wt % solution of the nucleopeptide. ATP or ADP was dissolved in PBS buffer at the concentration of 100 mM with the final pH of 7.4. To test sequestration ability of nucleopeptide, we mixed the solution of 5.0 wt % of nucleopeptide with ATP (ADP) in different molar ratio and stirred the mixture with pipettor gently. The mixture was kept at room temperature and used for different characterizations. The sequestration of ATP (or ADP) results in phase transition, from the solution to precipitates or hydrogel, which is observable by naked eyes. Such phase transitions were further characterized by TEM, CD, SLS and rheology according to the same procedure for sample preparation.

[8] = Interaction of nucleopeptide with ADP (phase transition); type: binding; settings: PBS buffer pH 7.4
Method: as §1

[9] = 1 at 0.4 wt %, 1 equivalent folinic acid
[10] = 1 at 0.4 wt %, 1 equivalent pyridoxal
[11] = 1 at 0.4 wt %, 4 equivalents folinic acid
[12] = 1 at 0.4 wt %, 4 equivalents pyridoxal

MBP-ASC^PYD, sequence (Q9ULZ3 1-91 limits assumed): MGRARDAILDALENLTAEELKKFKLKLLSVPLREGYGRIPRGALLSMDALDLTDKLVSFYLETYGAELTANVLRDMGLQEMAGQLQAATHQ

## COc1cccc2c1C(=O)c1c(O)c3c(c(O)c1C2=O)C[C@@](O)(C(=O)CO)C[C@@H]3O[C@H]1C[C@H](N)[C@H](O)[C@H](C)O1 [Dox, doxorubicin, reference compound]
MES-SA/dx5 cells [1]
  cellular retention of Dox (efflux): little Dox
MES-SA/dx5 cells [2]; Dox alone (5 mm as printed)
  cell death: 46%

## Cc1cn(CC(=O)N[C@H](Cc2ccccc2)C(=O)N[C@H](Cc2ccccc2)C(=O)N[C@H](CCCCN)C(=O)N[C@H](CCCCN)C(=O)N[C@H](Cc2ccccc2)C(=O)N[C@H](CCCCN)C(=O)N[C@H](CC(C)C)C(=O)N[C@H](CCCCN)C(=O)N[C@H](CC(C)C)C(=O)O)c(=O)[nH]c1=O [NP1, thyminylacetyl-ffkkfklkl] ({Acetyl(thymin-1-yl)}-[dF][dF][dK][dK][dF][dK][dL][dK][dL]-OH)
MES-SA/dx5 cells [2]; NP1 by itself
  cytotoxicity: little cytotoxicity

## CC(C)C[C@H](NC(=O)[C@H](CCCCN)NC(=O)[C@H](CC(C)C)NC(=O)[C@H](CCCCN)NC(=O)[C@H](Cc1ccccc1)NC(=O)[C@H](CCCCN)NC(=O)[C@H](CCCCN)NC(=O)[C@H](Cc1ccccc1)NC(=O)[C@H](Cc1ccccc1)NC(=O)Cc1ccc2ccccc2c1)C(=O)O [Peptide 1] ({Acetyl(2-naphthyl)}-FFKKFKLKL-OH; C-terminus assumed)
[3]
  biocompatibility: cell-compatible
[4]; 1 alone, 0.4 wt %, pH 7.4
  tendency for hydrogelation (state in aqueous solution): transparent viscous solution
[4]; 1 at 0.4 wt %, 1 equivalent AMP
  gelation time: 11 s
[4]; [9]
  gelation time: about 8 seconds
[4]; [10]
  gelation time (sol-gel phase transition): 190 s
[4]; 1 at 0.4 wt %, 1 or 4 equivalents ATP
  gelation time: about 7 seconds
[4]; 1 at 0.4 wt %, 4 equivalents AMP
  gelation time: 5 s
[4]; [11]
  gelation time: ~7 s
[4]; [12]
  gelation time: ≤ 19 s
[4]; 1 at 0.4 wt %, four molar equivalents of P5P
  gelation time: 4 s
[4]; 1 at 0.4 wt %, pH 7.4, equal molar P5P
  gelation time: ≤ 10 s
[4]; 1 at 0.4 wt %, two to four molar equivalents of P5P
  gelation time: ≤ 10 s
[5]; [9]
  storage modulus: 64 Pa
[5]; [10]
  cross point of G′ and G″: 77 s
  storage modulus G′: 55 Pa
[5]; [11]
  storage modulus: 78 Pa
[5]; [12]
  storage modulus G′: 980 Pa
[5]; 1 at 0.4 wt %, one equivalent of P5P
  storage modulus G′: 40 Pa
[5]; 1 in the presence of ATP or AMP
  mechanical properties: change little
[5]; 1 itself, 0.4 wt %, after 1 h incubation
  storage modulus G′: around 6 Pa
[5]; 4 equivalents pyridoxal
  G′ relative to hydrogel formed with 1 equivalent pyridoxal: 18 times
[5]; one equivalent of P5P
  G′ relative to G′ of 1 itself: 8 times
[6]; pH 5.0, 12 h
  release of doxorubicin from hydrogel: about 85%
[6]; pH 7.4, 12 h
  release of doxorubicin from hydrogel: 50%

## Cc1ncc(COP(=O)(O)O)c(C=O)c1O [Peptide P5P, pyridoxal-5-phosphate]
MBP-ASC^PYD
  oligomerization of MBP-ASC^PYD: modulates the oligomerization

## thyminylacetyl-FF [NP11]
[7]
  ability to sequester ATP: unable to sequester ATP

## thyminylacetyl-FFK [NP10]
[7]
  ability to sequester ATP: unable to sequester ATP

## thyminylacetyl-FFKK [NP9]
[7]
  ability to sequester ATP: unable to sequester ATP

## thyminylacetyl-FFKKF ({Acetyl(thymin-1-yl)}-FFKKF) [NP6]
[7]
  ability to sequester ATP: able to sequester ATP

## thyminylacetyl-FFKKFK ({Acetyl(thymin-1-yl)}-FFKKFK) [NP8]
[7]
  ability to sequester ATP: unable to sequester ATP

## thyminylacetyl-FFKKFKL ({Acetyl(thymin-1-yl)}-FFKKFKL) [NP4]
[7]
  ability to sequester ATP: able to sequester ATP

## thyminylacetyl-FFKKFKLK ({Acetyl(thymin-1-yl)}-FFKKFKLK) [NP7]
[7]
  ability to sequester ATP: unable to sequester ATP

## thyminylacetyl-FFKKFKLKL ({Acetyl(thymin-1-yl)}-FFKKFKLKL) [NP2]
[7]
  ability to sequester ATP: able to sequester ATP
[7]; PBS buffer pH 7.4
  phase transition after addition of ATP: precipitates
[8]
  phase transition in the presence of ADP: remains as a transparent solution

## thyminylacetyl-KKFKLKL ({Acetyl(thymin-1-yl)}-KKFKLKL) [NP12]
[7]
  ability to sequester ATP: unable to sequester ATP

## thyminylacetyl-ffkkf [NP5]
[7]
  ability to sequester ATP: able to sequester ATP

## thyminylacetyl-ffkkfkl [NP3]
[7]
  ability to sequester ATP: able to sequester ATP
